Data reported in US6534508B2, “Methods and compositions for treating infection using optically pure (S)-lomefloxacin” (priority 1991, dated 2003).
Converted amounts (≈) assume the structure as drawn. Like-named read-outs stand apart in the source and are kept apart here.

How the values were obtained:
[1] = tested on: M. tuberculosis; assay: Broth microdilution MIC, M. tuberculosis isolates; type: cell-based; details: 12 strains, 14 days incubation, 7H9 broth
[2] = tested on: M. marinum ATCC 927; assay: Broth microdilution MIC, M. marinum ATCC 927; type: cell-based
[3] = tested on: M. kansasii; assay: Broth microdilution MIC, M. kansasii isolates; type: cell-based; details: 10 strains, 7 days incubation, 7H9 broth
[4] = tested on: M. avium; assay: Broth microdilution MIC, M. avium isolates; type: cell-based; details: 11 strains, 7 days incubation, 7H9 broth
[5] = tested on: M. chelonei C315; assay: Broth microdilution MIC, M. chelonei C315; type: cell-based; details: for MIC50: as worded in conclusions, single strain
[6] = human, in vivo, cited from earlier work
[7] = tested on: M. tuberculosis; details: 79 strains susceptible to conventional drug therapy; cited from earlier work
[8] = tested on: β-adrenergic; details: L-form vs D-enantiomer; cited from earlier work
[9] = 1 strain, 7 days incubation at 30° C., 7H9 broth
[10] = as worded in conclusions, single strain
[11] = 1 strain, 4 days incubation, 7H9 broth

## CCn1cc(C(=O)O)c(=O)c2cc(F)c(N3CCNC(C)C3)c(F)c21 (racemic) [LM, 1-ethyl-6,8-difluoro-1,4-dihydro-7-(3-methyl-lpiperazinyl)-4-oxo-3-quinolinecarboxylic acid]
[1]
  Susceptibility, Range: 0.5 to 2 µg/mL
[1]; Mycobacterium tuberculosis, 336 h, read-out: Susceptibility, MIC50
  MIC50: 1 µg/mL (≈ 2.85 µM)
[1]; Mycobacterium tuberculosis, 336 h, read-out: Susceptibility, MIC90
  MIC90: 2 µg/mL (≈ 5.69 µM)
[2]; Mycobacterium marinum, ATCC927, 168 h, 1 strain, 7 days incubation at 30° C., 7H9 broth, read-out: Susceptibility, MIC
  MIC: 4 µg/mL (≈ 11.4 µM)
[2]; Mycobacterium marinum, ATCC927, as worded in conclusions, single strain
  MIC50: 4 µg/mL (≈ 11.4 µM)
[3]
  Susceptibility, MIC90: 2.0 µg/mL
  Susceptibility, Range: 1 to 2 µg/mL
[3]; Mycobacterium kansasii, 168 h, read-out: Susceptibility, MIC50
  MIC50: 1 µg/mL (≈ 2.85 µM)
[3]; Mycobacterium kansasii, 168 h, read-out: Susceptibility, MIC90
  MIC90: 2 µg/mL (≈ 5.69 µM)
[4]
  Susceptibility, Range: 4 to 16 µg/mL
[4]; Mycobacterium avium, 168 h, read-out: Susceptibility, MIC50
  MIC50: 8 µg/mL (≈ 22.8 µM)
[4]; Mycobacterium avium, 168 h, read-out: Susceptibility, MIC90
  MIC90: 16 µg/mL (≈ 45.5 µM)
[5]; Mycobacteroides abscessus, C315, 96 h, 1 strain, 4 days incubation, 7H9 broth, read-out: Susceptibility, MIC
  MIC: 4 µg/mL (≈ 11.4 µM)
[5]; Mycobacteroides abscessus, C315, read-out: MIC50
  MIC50: 4 µg/mL (≈ 11.4 µM)
[6]; po
  average elimination half-life: approximately 8 hours
[6]
  prolongation of the half-life: up to 24 hours
[7]
  MIC50: 0.96 µg/mL (≈ 2.73 µM)
  MIC90: 1.02 µg/mL (≈ 2.9 µM)

## CC(C)NC[C@H](O)COc1cccc2ccccc12 [L-form of propranolol, propranolol]
[8]
  potency relative to the D-enantiomer: 100 times

## CCn1cc(C(=O)O)c(=O)c2cc(F)c(N3CCN[C@H](C)C3)c(F)c21 [R-LM, (R)-lomefloxacin]
[1]
  Susceptibility, MIC50: 2 µg/mL
  Susceptibility, MIC90: 4 µg/mL
  Susceptibility, Range: 1 to 4 µg/mL
[2]; [9]
  Susceptibility, MIC: 4 µg/mL
[2]; [10]
  MIC: 4.0 µg/mL (≈ 11.4 µM)
[3]
  Susceptibility, MIC50: 2 µg/mL
  Susceptibility, MIC90: 4 µg/mL
  Susceptibility, Range: 2 to 4 µg/mL
[3]; listed as (R)-LM
  Susceptibility, MIC90: 4.0 µg/mL
[4]
  Susceptibility, MIC50: 16 µg/mL
  Susceptibility, MIC90: 32 µg/mL
  Susceptibility, Range: 4 to 32 µg/mL
[5]; [11]
  Susceptibility, MIC: 4 µg/mL
[5]
  MIC50: 4.0 µg/mL (≈ 11.4 µM)

## CCn1cc(C(=O)O)c(=O)c2cc(F)c(N3CCN[C@@H](C)C3)c(F)c21 [S-LM, (S)-lomefloxacin]
[1]
  Susceptibility, MIC50: 0.5 µg/mL
  Susceptibility, Range: 0.25 to 1 µg/mL
[2]; [9]
  Susceptibility, MIC: 2 µg/mL
[2]; [10]
  MIC: 2.0 µg/mL (≈ 5.69 µM)
[3]
  Susceptibility, MIC50: 1 µg/mL
  Susceptibility, MIC90: 2 µg/mL
  Susceptibility, Range: 1 to 2 µg/mL
[3]; listed as (S)-LM
  Susceptibility, MIC90: 2.0 µg/mL
[4]
  Susceptibility, MIC50: 8 µg/mL
  Susceptibility, MIC90: 16 µg/mL
  Susceptibility, Range: 2 to 16 µg/mL
[5]; [11]
  Susceptibility, MIC: 2 µg/mL
[5]
  MIC50: 2.0 µg/mL (≈ 5.69 µM)
